The source of these data is PubChem BioAssay (NCI).

Molecules are shown by their SMILES.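 Interpolation was linear, between the two tested concentrations surrounding the appropriate level; five concentrations were tested over 48 hours in 96-well plates. The concentration for full growth arrest is given as TGI.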

Some test systems named below: UACC-257 melanoma; MDA-MB-231 breast; OVCAR-5 ovarian; SK-OV-3 ovarian; A549 NSCLC; CAKI-1 renal; RPMI-8226 leukemia; NCI/ADR-RES ovarian; SNB-75 CNS.
Assay in all cases: NCI tumour cell line growth inhibition, 48 h

For `O=C1CCSSCCC(=O)Nc2ccccc2N1`, the TGI in the assay on UACC-257 melanoma, in the assay on MDA-MB-231 breast, in the assay on OVCAR-5 ovarian, in the assay with SK-OV-3 ovarian, in the assay with A549 NSCLC and in the assay with CAKI-1 renal was above 100 µM throughout. For the same molecule, the TGI in the assay on RPMI-8226 leukemia and in the assay with NCI/ADR-RES ovarian was above 100 µM each time.

For `CCOC(=O)C1C/C(C)=C(/C)SCCCS1` (stereo not given), the TGI in the assay with UACC-257 melanoma, with MDA-MB-231 breast, with OVCAR-5 ovarian, in the assay on SK-OV-3 ovarian, with A549 NSCLC and in the assay on RPMI-8226 leukemia was above 100 µM in each case. In the assay with NCI/ADR-RES ovarian, this molecule returned a TGI above 100 µM.

Regarding `CC(C)=CC(=O)O[C@@H]1CC(C)(C)CC2C3=CCC4[C@]56CC[C@](O)(OC5)C(C)(C)C6CC[C@@]4(C)C3(C)CC[C@]21C(=O)O` (stereo not given in full), the TGI with UACC-257 melanoma, with MDA-MB-231 breast, in the assay with OVCAR-5 ovarian, in the assay with SK-OV-3 ovarian, in the assay on A549 NSCLC and with CAKI-1 renal was above 100 µM in each case. The TGI with RPMI-8226 leukemia and in the assay on NCI/ADR-RES ovarian was above 100 µM in each case.

For the molecule `CCOC(=O)/C=C1\Nc2ccccc2C12CCc1c([nH]c3ccccc13)C2C(=O)OCC` (stereo not given), the TGI with UACC-257 melanoma, with MDA-MB-231 breast, with OVCAR-5 ovarian, with SK-OV-3 ovarian, in the assay on A549 NSCLC and with CAKI-1 renal was above 100 µM throughout. In addition, the TGI was 61.9 µM in the assay on RPMI-8226 leukemia and above 100 µM in the assay with NCI/ADR-RES ovarian.

As for `COc1ccc(CNc2nc(NCc3ccc(OC)cc3)nc(NC3CCCCC3)n2)cc1`, the TGI in the assay with UACC-257 melanoma was above 100 µM; with MDA-MB-231 breast, 7.73 µM; in the assay on OVCAR-5 ovarian, above 100 µM; in the assay with SK-OV-3 ovarian it was above 100 µM; with A549 NSCLC it was 5.31 µM; in the assay with CAKI-1 renal it was 4.86 µM. For the same molecule, the results for the TGI in the assay on RPMI-8226 leukemia and in the assay with NCI/ADR-RES ovarian were above 100 µM and 5.36 µM, respectively.

For the molecule `CC(=O)N[C@@H](Cc1ccc(O)cn1)C(=O)NCc1ccc2c(c1)OCO2`, the TGI in the assay on UACC-257 melanoma, in the assay with OVCAR-5 ovarian, in the assay on SK-OV-3 ovarian, in the assay with A549 NSCLC, in the assay on CAKI-1 renal and with RPMI-8226 leukemia was above 100 µM throughout. This molecule also had a TGI in the assay with NCI/ADR-RES ovarian above 100 µM.

Turning to `CC1=NNC(N)=N/C1=C/C(Sc1ccc(Cl)cc1)c1cccs1` (stereo not given), the TGI in the assay with UACC-257 melanoma was found to be 45.5 µM; with OVCAR-5 ovarian it was 35.2 µM; in the assay with SK-OV-3 ovarian it was 26.4 µM; with A549 NSCLC, 38.8 µM; with CAKI-1 renal it was 53.9 µM; in the assay with RPMI-8226 leukemia it was 64.3 µM. In the assay with NCI/ADR-RES ovarian, this molecule returned a TGI above 100 µM.

With `COc1cc(C(=O)Nc2nnc(S(N)(=O)=O)s2)cc(OC)c1OC`, the TGI in the assay on UACC-257 melanoma, with MDA-MB-231 breast, in the assay on OVCAR-5 ovarian, in the assay on SK-OV-3 ovarian, in the assay with A549 NSCLC and with CAKI-1 renal was above 100 µM throughout. Further, the TGI with RPMI-8226 leukemia and in the assay on NCI/ADR-RES ovarian was above 100 µM throughout.

Turning to `CN(C)c1ccc(C(=NNC(=O)c2cc3ccccc3[nH]2)c2ccc(N(C)C)cc2)cc1`, the TGI in the assay with UACC-257 melanoma was above 100 µM; in the assay on MDA-MB-231 breast it was 12.9 µM; with SNB-75 CNS, 16.9 µM; in the assay with OVCAR-5 ovarian it was above 45.5 µM; with SK-OV-3 ovarian, above 87.7 µM; in the assay with A549 NSCLC, above 100 µM. In addition, in the assay with CAKI-1 renal, the TGI worked out at 45.7 µM.

In the case of `COc1ccc(Cn2nc(OCc3ccccn3)c3cc([N+](=O)[O-])ccc32)cc1`, the TGI in the assay with UACC-257 melanoma, in the assay with MDA-MB-231 breast, in the assay with OVCAR-5 ovarian, with SK-OV-3 ovarian, in the assay on A549 NSCLC and in the assay with CAKI-1 renal was above 100 µM throughout. The TGI with RPMI-8226 leukemia and in the assay on NCI/ADR-RES ovarian was above 100 µM in each case.

For the molecule `Cc1ccc2ccccc2c1CC1S(=O)(=O)OCCOS1(=O)=O`, the TGI with UACC-257 melanoma came to 41.2 µM; with MDA-MB-231 breast, 29.1 µM; in the assay with OVCAR-5 ovarian, 24.4 µM; in the assay with A549 NSCLC, 29.6 µM; in the assay with CAKI-1 renal it was 24.4 µM; in the assay with RPMI-8226 leukemia it was 32.3 µM. In addition, the TGI in the assay on NCI/ADR-RES ovarian stood at 72.4 µM.

Turning to `O=C1C/C(=C\O)C(=O)c2ccccc2N1`, the TGI in the assay with UACC-257 melanoma, with MDA-MB-231 breast, with OVCAR-5 ovarian, with SK-OV-3 ovarian, with A549 NSCLC and in the assay on CAKI-1 renal was above 100 µM each time. Further, the TGI in the assay on NCI/ADR-RES ovarian was above 100 µM.

For `CC(=O)Oc1ccc2cc(Oc3ccc(Cl)cc3)c(=O)oc2c1`, the TGI with UACC-257 melanoma was 78.7 µM; in the assay with MDA-MB-231 breast, above 100 µM; in the assay on SNB-75 CNS, above 100 µM; in the assay with OVCAR-5 ovarian, above 100 µM; with A549 NSCLC, 94 µM; in the assay on CAKI-1 renal, above 100 µM. Also, the TGI in the assay with RPMI-8226 leukemia was above 100 µM.

`OC(CC(c1ccccc1)c1ccc(Cl)cc1)c1ccc(Cl)cc1` (stereo not given): the TGI with UACC-257 melanoma was above 100 µM; with SNB-75 CNS it was 81.8 µM; in the assay on OVCAR-5 ovarian, 62 µM; in the assay on SK-OV-3 ovarian it was 90.8 µM; with A549 NSCLC it was above 100 µM; in the assay with CAKI-1 renal, above 100 µM. The TGI with RPMI-8226 leukemia was found to be 70 µM; in the assay with NCI/ADR-RES ovarian, 95.2 µM.
